Molecular target: T1, Tumor necrosis factor receptor superfamily member 6 (Rattus norvegicus) (UniProt Q63199)
T1 sequence (whole entry): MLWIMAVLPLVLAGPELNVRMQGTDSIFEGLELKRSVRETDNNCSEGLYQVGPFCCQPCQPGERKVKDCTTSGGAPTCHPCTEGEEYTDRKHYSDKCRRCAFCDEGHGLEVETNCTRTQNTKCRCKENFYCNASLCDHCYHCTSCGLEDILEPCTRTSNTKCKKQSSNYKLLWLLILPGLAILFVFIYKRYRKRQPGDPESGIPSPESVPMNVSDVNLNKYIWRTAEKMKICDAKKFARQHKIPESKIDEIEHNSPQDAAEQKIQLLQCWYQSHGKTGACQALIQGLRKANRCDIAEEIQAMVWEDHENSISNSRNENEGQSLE
Assay: Inhibition of Fas-mediated cell death in oxygen and glucose deprived rat H9c2 cells at 10 uM treated 30 mins before oxygen and glucose deprivation measured after 6 hrs by DAPI staining
Format: cell-based

Compound	inhibition
O=C(CSc1ccc(Br)cc1)Nc1ccccc1C(=O)O	30.9%
COC(=O)c1ccsc1NC(=O)CSc1ccccc1	8.38%
COC(=O)c1sccc1NC(=O)CSc1ccccc1	9.48%
COC(=O)c1ccccc1NC(=O)CSc1ccccc1	6.05%
COC(=O)c1ccsc1NC(=O)CSc1ccc(Br)cc1	9%
COC(=O)c1nn(CCc2ccccc2)cc1NC(=O)COc1ccc(Br)cc1	2.97%
COC(=O)c1sccc1NC(=O)CSc1cccc(OC)c1	6.18%
COC(=O)c1nn(CCc2ccccc2)cc1NC(=O)CCc1ccccc1	3.99%
COC(=O)c1c(NC(=O)CSc2ccc([N+](=O)[O-])cc2)cnn1CCc1ccccc1	4.5%
O=C(CSc1ccc(Br)cc1)Nc1c(C(=O)O)oc2ccccc12	8.47%
COC(=O)c1sc2ncccc2c1NC(=O)CCSc1ccccn1	4.95%
COC(=O)c1sccc1NC(=O)CSc1ccc(OC)cc1	10.8%
COC(=O)c1c(NC(=O)CSc2ccc(Br)cc2)cnn1CCc1ccccc1	5.41%
COC(=O)c1sccc1NC(=O)CSc1ccc(Br)cc1	4%
COC(=O)c1c(NC(=O)CSc2cccc(OC)c2)cnn1CCc1ccccc1	4.17%
COC(=O)c1cc(OC)c(OC)c(OC)c1NC(=O)CCSc1ccccn1	13.5%
COC(=O)c1ccccc1NC(=O)CSc1ccccn1	7.9%
COC(=O)c1sccc1NC(=O)CCSc1ccccc1	5.24%
O=C(O)c1cc(Cl)ccc1NC(=O)C(Sc1ccc(Br)cc1)c1ccccc1 (stereo not given)	27.4%
COC(=O)c1ccsc1NC(=O)CCSc1ccc(Br)cc1	6.45%

Compound	inhibition
COC(=O)c1c(NC(=O)CSc2ccccc2N)cnn1CCc1ccccc1	5.4%
COC(=O)c1oc2cccc(Cl)c2c1NC(=O)CSc1ccccn1	7.33%
Cc1csc(C(=O)O)c1NC(=O)CSc1ccc(Br)cc1	14.3%
COC(=O)c1ccc(Cl)cc1NC(=O)CCSc1ccccn1	12.8%
CN(C)C(=O)c1sccc1NC(=O)CSc1ccc(Br)cc1	10.4%
COC(=O)c1oc2cccc(Cl)c2c1NC(=O)CSc1ccc(Br)cc1	14.7%
COC(=O)c1cc(OC)c(OC)cc1NC(=O)CCSc1ccccn1	17.5%
O=C(CSc1ccc(Br)cc1)Nc1c(Br)cc(Br)cc1C(=O)O	16.1%
COC(=O)c1sccc1NC(=O)CCSc1ccc(Br)cc1	16.9%
COC(=O)c1sccc1NC(=O)COc1ccc(Br)cc1	10.8%
COC(=O)c1oc2ccccc2c1NC(=O)CSc1ccc(Br)cc1	7.57%
O=C(CCSc1ccccn1)Nc1cc(Cl)ccc1C1=NCCO1	23.2%
COC(=O)c1ccc(Cl)cc1NC(=O)CSc1ccc(Br)cc1	12%
COc1cc(NC(=O)CSc2ccc(Br)cc2)c(C2=NCCO2)cc1OC	11.9%
COc1cc(C(=O)O)c(NC(=O)CCSc2ccccn2)c(OC)c1OC	28.6%
COC(=O)c1sc2ccccc2c1NC(=O)CCSc1ccc(Br)cc1	8.57%
COC(=O)c1sc2ccccc2c1NC(=O)CSc1ccccc1	7.94%
COC(=O)c1cc(Br)cc(Br)c1NC(=O)CCSc1ccccn1	11.4%
COC(=O)c1cc(Br)cc(Br)c1NC(=O)C(Sc1ccc(Br)cc1)c1ccccc1 (stereo not given)	21.3%
COC(=O)c1sccc1NC(=O)CN(C)c1ccccc1	7.57%

— ChEMBL document CHEMBL2417531, “The discovery of inhibitors of Fas-mediated cell death pathway using the combined computational method” (Bioorg Med Chem Lett, 2013)
